The target of assay [1] is T1, Adenosine receptor A1 (Gallus gallus, UniProt P49892).
T1 sequence (P49892 whole entry): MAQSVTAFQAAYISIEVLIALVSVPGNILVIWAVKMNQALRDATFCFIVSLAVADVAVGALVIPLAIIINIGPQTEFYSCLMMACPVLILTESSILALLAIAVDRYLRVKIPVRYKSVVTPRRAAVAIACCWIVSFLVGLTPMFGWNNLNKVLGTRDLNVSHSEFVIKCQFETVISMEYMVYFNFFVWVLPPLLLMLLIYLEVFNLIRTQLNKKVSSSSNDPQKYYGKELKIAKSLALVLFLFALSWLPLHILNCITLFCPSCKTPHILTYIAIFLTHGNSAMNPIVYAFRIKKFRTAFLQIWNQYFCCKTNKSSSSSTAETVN

Assay [2] concerns the target T2, Adenosine receptor A3 (Gallus gallus, UniProt A0A8V1ACC1).
T2 sequence (A0A8V1ACC1 whole entry): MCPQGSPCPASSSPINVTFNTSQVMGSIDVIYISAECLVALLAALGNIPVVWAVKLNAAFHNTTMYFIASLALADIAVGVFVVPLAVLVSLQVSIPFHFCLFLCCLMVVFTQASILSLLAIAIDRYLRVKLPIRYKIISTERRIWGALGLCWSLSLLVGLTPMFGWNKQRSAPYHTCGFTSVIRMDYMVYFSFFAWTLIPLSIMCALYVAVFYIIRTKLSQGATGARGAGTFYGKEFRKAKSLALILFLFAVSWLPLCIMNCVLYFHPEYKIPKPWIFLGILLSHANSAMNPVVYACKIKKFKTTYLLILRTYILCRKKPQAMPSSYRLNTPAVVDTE

SMILES strings stand for the structures.

Usually Ki stands for a dissociation constant, usually derived from enzyme kinetics or from competition with a known ligand. Read a high Ki as lower affinity. In the case of `CC(Cc1ccccc1)Nc1ncnc2c1ncn2C1OC(CO)C(O)C1O` (stereo unspecified) [R-N6-(2-phenylisopropyl) adenosine], the Ki is 0.72 nM in assay [1] and 1.13 nM in assay [2].
For the compound `OC[C@H]1O[C@@H](n2cnc3c(NC4CCCCC4)ncnc32)[C@H](O)[C@@H]1O` [CHA], the Ki in assay [1] was 1.66 nM; in assay [2], 17.1 nM.
For the compound `OCC1OC(n2cnc3c(NC4CCCC4)nc(Cl)nc32)C(O)C1O` (stereo unspecified) [2-(2-Chloro-6-cyclopentylamino-purin-9-yl)-5-hydroxymethyl-tetrahydro-furan-3,4-diol], the Ki came to 4.01 nM in assay [1] and 6.82 nM in assay [2].
Take `CCOC(=O)C1=C(c2ccccc2)N=C(C)C(C(=O)OCC)C1/C=C/c1ccccc1` (stereo unspecified): the inhibitory constant (Ki) in assay [1] turned out to be 3430 nM; in assay [2], 990 nM.
For `CCNC(=O)[C@H]1O[C@@H](n2cnc3c(N)ncnc32)[C@H](O)[C@@H]1O`, in that order: 23.4 nM and 37.1 nM.
For `CCCn1c(=O)c2[nH]c(-c3ccc(C=CC(=O)O)cc3)nc2n(CCC)c1=O` [NSC_129447], in that order: 167 nM and 36.6 nM.
The matching figures for `CNC(=O)C1OC(n2cnc3c(NCc4cccc(I)c4)ncnc32)C(O)C1O` (stereo unspecified) [3,4-dihydroxy-5-(6-{[(3-iodophenyl)methyl]amino}-9H-purin-9-yl)-N-methyloxolane-2-carboxamide]: 16.3 nM and 2.8 nM.
Regarding `CC(C=C[C@@]1(O)C(C)=CC(=O)CC1(C)C)=CC(=O)O` [CAS_14375-45-2], the Ki in assay [2] was 56.1 nM.
`CNC(=O)[C@H]1O[C@@H](n2cnc3c(NCc4cccc(I)c4)nc(Cl)nc32)[C@H](O)[C@@H]1O` [2-Cl-IB-MECA] gave a Ki in assay [1] of 74 nM.
In assay [2], `Cc1ccc(-c2oc3ccc(Cl)cc3c(=O)c2Cl)c(OC(C)C)c1` gave a Ki of 3310 nM.
Consider `Nc1ncnc2c1ncn2[C@@H]1O[C@H](C(=O)NCc2ccccc2)[C@@H](O)[C@H]1O` [B-NECA], for which the Ki in assay [1] is 6.83 nM; in assay [2] it was 6.79 nM.
Take `CCCn1c(=O)c2nc[nH]c2n(CCC)c1=O`: the Ki came out at 11.2 nM in assay [1] and 53.3 nM in assay [2].

Source of the values: BindingDB's records for doi:10.1007/s002100000340 (University of Illinois At Chicago, 2001).
